US7169927B2, “Indole-amide derivatives and their use as glycogen phosphorylase inhibitors” (AstraZeneca AB, priority 2002, dated 2007)

Legend:
[1] = target: T1, Human recombinant liver glycogen phosphorylase a (hrl GPa) (Homo sapiens, UniProt P06737); assay: Glycogen phosphorylase a inhibition, glycogen degradation (multienzyme coupled assay, NADH fluorescence); assay type: biochemical; conditions: glycogen degradation direction
T1 sequence (P06737 1-847): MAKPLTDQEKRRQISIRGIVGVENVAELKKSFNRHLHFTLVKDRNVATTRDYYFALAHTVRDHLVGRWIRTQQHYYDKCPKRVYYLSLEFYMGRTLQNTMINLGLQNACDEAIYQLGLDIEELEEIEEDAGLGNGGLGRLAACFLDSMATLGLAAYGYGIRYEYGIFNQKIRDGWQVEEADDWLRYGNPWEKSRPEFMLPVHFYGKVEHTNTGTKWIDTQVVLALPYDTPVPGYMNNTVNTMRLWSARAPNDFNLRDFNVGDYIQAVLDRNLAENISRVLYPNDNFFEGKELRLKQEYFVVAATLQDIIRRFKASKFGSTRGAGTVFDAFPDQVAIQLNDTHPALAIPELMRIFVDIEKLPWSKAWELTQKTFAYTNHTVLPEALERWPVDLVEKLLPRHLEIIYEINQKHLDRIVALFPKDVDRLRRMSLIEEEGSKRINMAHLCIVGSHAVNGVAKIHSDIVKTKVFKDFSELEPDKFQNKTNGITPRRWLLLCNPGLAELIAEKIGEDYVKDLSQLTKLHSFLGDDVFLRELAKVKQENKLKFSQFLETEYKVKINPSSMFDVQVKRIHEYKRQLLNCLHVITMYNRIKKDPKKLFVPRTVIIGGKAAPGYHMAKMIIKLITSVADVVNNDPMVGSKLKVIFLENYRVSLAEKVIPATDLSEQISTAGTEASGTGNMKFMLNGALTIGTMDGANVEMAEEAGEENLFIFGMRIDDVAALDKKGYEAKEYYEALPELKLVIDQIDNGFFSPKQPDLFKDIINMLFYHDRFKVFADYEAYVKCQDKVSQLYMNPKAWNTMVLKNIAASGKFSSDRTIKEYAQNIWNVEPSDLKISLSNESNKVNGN
Procedure: The activity of the compounds is alternatively determined by measuring the inhibitory effect of the compounds on glycogen degradation, the production of glucose-1-phosphate from glycogen is monitored by the multienzyme coupled assay, as described in EP 0 846 464 A2, general method of Pesce et al (Pesce, M A, Bodourian, S H, Harris, R C, and Nicholson, J F (1977) Clinical Chemistry 23, […]). The reactions were in 384well microplate format in a volume of 50 μl. The change in fluorescence due to the conversion of the co-factor NAD to NADH is measured at 340 nm excitation, 465 nm emission in a Tecan Ultra Multifunctional Microplate Reader. The reaction is in 50 mM HEPES, 3.5 mM KH2PO4, 2.5 mM MgCl2, 2.5 mM ethylene glycol-bis(b-aminoethyl ether) N,N,N′N′tetraacetic acid, 100 mM KCl, 8 mM D-(+)-glucose pH7.2, containing 0.5 mM dithiothreitol, the assay buffer solution. Human recombinant liver glycogen phosphorylase a (hrl GPa) 20 nM is pre-incubated in assay buffer solution with 6.25 mM NAD, 1.25 mg type III glycogen at 1.25 mg ml^−1 the reagent buffer, for 30 minutes. […] The non-inhibited activity of GPa is measured in the presence of 10 μl 5% DMSO in assay buffer solution and maximum inhibition measured in the presence of 5 mgs ml^−1 N-ethylmaleimide. […] Relative Fluoresence Units (RFUs) are measured at 340 nm excitation, 465 nm emission. […]

hepatocytes = conditions: cited from earlier work; for glucose output: glucagon stimulated
db/db and ob/ob mice = conditions: cited from earlier work
conscious dogs = conditions: following a glucagon challenge; cited from earlier work

Row | IC50 [1] [µM] | SMILES | glucagon stimulated glycogenolysis (hepatocytes) | glucose output (hepatocytes) | plasma glucose concentration (db/db and ob/ob mice) | arterial plasma glucose (conscious dogs) | hepatic glucose output (conscious dogs)
1 | 4.6 | Cc1csc(NC(=O)CN2C(=O)C(NC(=O)c3cc4cc(Cl)ccc4[nH]3)Cc3ccccc32)n1 (stereo not drawn) [Example 14, 5-chloro-N-(1-{2-[(4-methyl-1,3-thiazol-2-yl)amino]-2-oxoethyl}-2-oxo-1,2,3,4-tetrahydroquinolin-3-yl)-1H-indole-2-carboxamide] |  |  |  |  | 
2 |  | O=C(N[C@@H](Cc1ccc(F)cc1)C(=O)N1CCC(O)CC1)c1cc2cc(Cl)ccc2[nH]1 [CP320626] | reduce | reduce | reduced, in a dose related manner |  | 
3 |  | CN(C)C(=O)[C@H](O)[C@H](Cc1ccccc1)NC(=O)c1cc2cc(Cl)ccc2[nH]1 [CP91149] | reduce | reduce | reduced, in a dose related manner |  | 
4 |  | CCN1C(C)=C(C(=O)OC(C)C)C(c2ccccc2Cl)C2=C1COC2=O (stereo not drawn) [Bay R 3401] |  |  |  | reduced significantly | reduced significantly
